Assay results: US4868203A, “Bacterial substance and pharmaceutical composition thereof” (Kabushikikaisha Ueno Seiyaku Oyo Kenkyujo, priority 1986, dated 1989)
Converted amounts (≈) assume the structure as drawn. Read-outs that look alike come from different tables or passages of the source.

Experiments:
[1] = tested on: Pseudomonas solanacearum NIAES 1418; type: cell-based; conditions: Pseudomonas solanacearum NIAES 1418 (wilt of solanum)
[2] = tested on: Pseudomonas syringae PV lachrymans NIAES 1316; test: Evaluation of activity against the bacterial spot of cucumber (Test Example 3); type: in vivo; conditions: 50 ppm
Protocol: Cucumber(Green tokiwa) was used for the test. Potted cucumber plants (2 leaf stage) were sprayed with sufficient amount of 50 ppm solution of bacterial substance UFC-N11 (dissolved in 0.05% aqueous sodium bicarbonate), air-dried, and spray-inoculated 10^8 /ml suspension of Pseudomonas Syringae PV lachrymans NIAES 1316, cultured on Wakimoto medium for 3 days, on both sides of leaves. For the control, an experiment was carried out using a solution without the substance N11 in the same manner as described above. After inoculation, the plants were maintained at 28° C. for 24 hours and maintained in a glass house until the day of evaluation. Six days after inoculation, percentage of spots area affected on the first and second seed leaf was observed and protection value was calculated according to the following formula: [formula] The experiment was repeated using Cu(OH)2 (Kosaid) 83% wettable powder (produced by Hokko chemical Industry Co. Ltd.) as a positive reference. In this case CaCO3 (Kurefunon) (produced by Shiraishi Calcium) was added (×200) in order to reduce damage.

[3] = Preservability of potato salad (Test Example 6); conditions: for Living bacteria: at end of storage life
Protocol: Bacterial substance UFC-N11 was added to potato (300 g), carrot (50 g), sliced onion (60 g), sliced cucumber (80 g), salad oil (15 g), vinegar (12. 5 g), NaCl (2 g), pepper (0.05 g) and mayonnaise (100 g) (total: ca 620 g) to prepare potato salad. Test samples (20 g/group) were packed in 200 ml mayonnaise bottles, sealed and examined for the preservability at 30° C. Potato and carrot were boiled and cut into appropriate size before use. The period until emission of a putrid smell is defined as effective storage life. General living bacterial number of samples at that time was also measured.

[4] = tested on: Xanthomonas campestris PV citri; conditions: for Prevention: sprayed 24 hours after inoculation, 14 days
[5] = Storage life of kamaboko, rot-proof property (Test Example 4)
Protocol: Fish paste was prepared by adding NaCl (2.5%), chemical seasoning (0.8%), starch (5%) and ice water (10%) based on frozen surimi of walleye pollack (4 kg) and cutting by a silent cutter for 10 minutes. Predetermined amount of bacterial substance UFC-N11 based on the resulting fish paste (2 kg) was added and completely mixed in a small mixer for 5 minutes. About 100 g fish paste were enclosed with polyvinylidene chloride film (spread width:45 mm), boiled at 90° C. for 30 minutes, quenched, left overnight and then tested for rot-proof property.
The test was conducted as follows. As the complete package products, 10 pieces/group of kamaboko processed by casing method samples and, as the simplified package products, 10 pieces/group prepared by peeling off the casing under sterilized condition, cutting into 2 round slices (thickness: 10 mm) by a sterilized knife and placing in a sterilized plastic Petri dish. were placed in a thermostatic chamber at 30° C. and evaluated by macroscopically observation. The evaluation uses five-level scale shown below. The period until the average evaluation value of 1 is attained is defined as the storage life.

**Q.** Which MIC [1] does the source give for `CC=CC=CC=CC(=O)NC(CC(=O)NC(C(=O)C1C(=O)NC(=O)C1C)C(C)C)c1ccccc1` (centres unmarked) [UFC-N11] here?
**A.** 1.56 µg/mL (≈ 3.25 µM)

**Q.** What about the Damage ([2]; cucumber plants) of the same molecule?
**A.** Nil

**Q.** And the Protection ([2]; sprayed before inoculation, 6 days)?
**A.** 36.8

**Q.** And the Living bacteria ([3]; 0.05 ppm)?
**A.** 5.9e+06 g⁻¹

**Q.** And the Storage life ([3]; 0.05 ppm, pH 5.14, 30° C.)?
**A.** 24 h

**Q.** What about the Living bacteria ([3]; 0.5 ppm) of the same molecule?
**A.** 2.8e+07 g⁻¹

**Q.** And the Storage life ([3]; 0.5 ppm, pH 5.15, 30° C.)?
**A.** 30 h

**Q.** And the Living bacteria ([3]; 5.0 ppm)?
**A.** 8.1e+06 g⁻¹

**Q.** What about the Storage life ([3]; 5.0 ppm, pH 5.15, 30° C.) of the same molecule?
**A.** 43 h

**Q.** What about the Living bacteria ([3]; 50 ppm) of the same molecule?
**A.** 5.5e+07 g⁻¹

**Q.** And the Storage life ([3]; 50 ppm, pH 5.16, 30° C.)?
**A.** 56 h

**Q.** What about the Prevention ([4]; 20 ppm) of the same molecule?
**A.** 26.70%

**Q.** What about the Prevention ([4]; 40 ppm) of the same molecule?
**A.** 33.9%

**Q.** What about the Damage ([4]; in vivo) of the same molecule?
**A.** nil

**Q.** What about the “Storage life, Complete package” value ([5]; 0.01 ppm, pH 7.06, 30° C.) of the same molecule?
**A.** 5.0 days

**Q.** And the “Storage life, simplified package” value ([5]; 0.01 ppm, pH 7.06, 30° C.)?
**A.** 2.5 days

**Q.** And the “Storage life, Complete package” value ([5]; 0.1 ppm, pH 7.06, 30° C.)?
**A.** 7.0 days

**Q.** And the “Storage life, simplified package” value ([5]; 0.1 ppm, pH 7.06, 30° C.)?
**A.** 3.0 days

**Q.** And the “Storage life, Complete package” value ([5]; 1.0 ppm, pH 7.05, 30° C.)?
**A.** 9.0 days

**Q.** What about the “Storage life, simplified package” value ([5]; 1.0 ppm, pH 7.05, 30° C.) of the same molecule?
**A.** 4.5 days

**Q.** What about the “Storage life, Complete package” value ([5]; 10 ppm, pH 7.05, 30° C.) of the same molecule?
**A.** 14.0 days

**Q.** What about the “Storage life, simplified package” value ([5]; 10 ppm, pH 7.05, 30° C.) of the same molecule?
**A.** 7.5 days

**Q.** What about the “Storage life, Complete package” value ([5]; 50 ppm, pH 7.04, 30° C.) of the same molecule?
**A.** 18.0 days

**Q.** What about the “Storage life, simplified package” value ([5]; 50 ppm, pH 7.04, 30° C.) of the same molecule?
**A.** 9.0 days

**Q.** What about the “Storage life, Complete package” value ([5]; 100 ppm, pH 7.06, 30° C.) of the same molecule?
**A.** 24.0 days

**Q.** What about the “Storage life, simplified package” value ([5]; 100 ppm, pH 7.06, 30° C.) of the same molecule?
**A.** 12.0 days
